# Experiments:
# [1] = Inhibition of LAG-3-MHCII (unknown origin) interaction incubated for 2 hrs by TR-FRET assay; design: species or system Homo sapiens
# [2] = Inhibition of LAG-3/FGL1 (unknown origin) interaction incubated for 2 hrs by TR-FRET assay; design: species or system Homo sapiens
# [3] = organism: Homo sapiens; assay: Inhibition of LAG-3-MHCII (unknown origin) interaction at 10 to 30 uM incubated for 2 hrs by TR-FRET assay relative to control; settings: dose 10-30 µM
# [4] = Inhibition of LAG-3/FGL1 (unknown origin) interaction by ELISA analysis; design: species or system Homo sapiens
# [5] = (§1) Inhibition of LAG-3-MHCII interaction in human Jurkat T cells expressing human LAG-3/luciferase reporter co-cultured with MHCII antigen presenting cells assessed as increase in luminescence by Bio-Glo reagent based assay; assay type: cell-based
# [6] = system: Jurkat T; assay: as §1; assay type: cell-based
SMILES,IC50 [1],IC50 [2],inhibition [3],IC50 [4],IC50 [5],inhibition [6]
CCCn1c(C)cc(C(=O)COc2ccc(NC(C)=O)cc2)c1C,> 50 µM,> 50 µM,–,–,–,–
CC(=O)Nc1ccccc1OCC(=O)c1cc(C)n(CCc2ccc(F)cc2)c1C,28.4 µM,32.7 µM,–,–,–,–
CC(=O)Nc1ccc(OCC(=O)c2cc(C)n(C(C)C)c2C)cc1,> 50 µM,> 50 µM,–,–,–,–
CCCn1c(C)cc(C(=O)COc2ccccc2NC(C)=O)c1C,> 50 µM,> 50 µM,–,–,–,–
Cc1cc(C(=O)COc2ccccc2C(=O)Nc2ccccc2)c(C)[nH]1,> 50 µM,> 50 µM,–,–,–,–
CCC(=O)c1ccc(OCC(=O)c2cc(C)n(Cc3ccco3)c2C)cc1,20.4 µM,28.7 µM,–,–,–,–
Cc1ccc(-n2c(C)cc(C(=O)COc3ccc(C(N)=O)cc3)c2C)cc1,26.9 µM,29.4 µM,–,–,–,–
CC(=O)Nc1ccc(OCC(=O)c2cc(C)n(CCc3ccc(F)cc3)c2C)cc1,28.4 µM,21.4 µM,–,–,–,–
CC(=O)Nc1ccc(OCC(=O)c2cc(C)n(CCc3ccccc3)c2C)cc1,23.4 µM,28.5 µM,–,–,–,–
CC(=O)Nc1cccc(OCC(=O)c2cc(C)n(-c3ccc(C)c(C)c3)c2C)c1,31.4 µM,25.5 µM,–,–,–,–
COCCCn1c(C)cc(C(=O)COc2ccc(NC(C)=O)cc2)c1C,> 50 µM,> 50 µM,–,–,–,–
Cc1ccc(-n2c(C)cc(C(=O)COc3ccc(NC(=O)c4ccc(C(C)(C)C)cc4)cc3)c2C)cc1,19.3 µM,18.2 µM,–,–,–,–
COc1ccccc1C(=O)Nc1ccc(OCC(=O)c2cc(C)n(C)c2C)cc1,25.7 µM,35.4 µM,–,–,–,–
CC(=O)Nc1ccc(OCC(=O)c2cc(C)n(-c3ccccc3F)c2C)cc1,21.3 µM,29.4 µM,–,–,–,–
C=CCn1c(C)cc(C(=O)COc2ccccc2C(=O)Nc2ccccc2)c1C,> 50 µM,> 50 µM,–,–,–,–
Cc1cc(C(=O)COc2ccc(C(N)=O)cc2)c(C)n1C,> 50 µM,> 50 µM,–,–,–,–
C=CCn1c(C)cc(C(=O)COc2ccc(NC(=O)c3cccc([N+](=O)[O-])c3)cc2)c1C,> 50 µM,> 50 µM,–,–,–,–

# Molecules with a lower IC50 [1], results first:
IC50 [1],IC50 [2],inhibition [3],IC50 [4],IC50 [5],SMILES,inhibition [6]
17.2 µM,20.4 µM,–,–,–,Cc1cc(C(=O)COc2ccc(N3CCCC3=O)cc2)c(C)n1C1CC1,–
11.2 µM,10.3 µM,–,–,–,CC(=O)Nc1ccc(OCC(=O)c2cc(C)n(-c3ccc(Cl)c(Cl)c3)c2C)cc1,–
14.8 µM,16.7 µM,> 90%,18.5 µM,–,Cc1cc(C(=O)COc2ccc(NC(=O)c3ccco3)cc2)c(C)n1C,–
18.3 µM,22.4 µM,–,–,–,Cc1cc(C(=O)COc2ccc(C(N)=O)cc2)c(C)n1CCc1ccc(F)cc1,–
12.4 µM,16.5 µM,–,–,–,CC(=O)Nc1ccc(OCC(=O)c2cc(C)n(-c3ccc(OC(F)F)cc3)c2C)cc1,–
18.3 µM,20.4 µM,–,–,–,CC(=O)Nc1ccc(OCC(=O)c2cc(C)n(Cc3ccccc3)c2C)cc1,–
4.21 µM,6.52 µM,–,–,6.95 µM,Cc1cc(C(=O)COc2ccc(NC(=O)c3ccco3)cc2)c(C)n1Cc1ccccc1,Dose-Dependent Effect
9.38 µM,9.94 µM,–,–,–,Cc1cc(C(=O)COc2ccc(NC(=O)c3ccccc3)cc2)c(C)n1Cc1ccco1,–
8.36 µM,13.7 µM,–,–,–,Cc1cc(C(=O)COc2ccc(NC(=O)c3ccco3)cc2)c(C)n1-c1ccccc1,–
18.4 µM,14.2 µM,–,–,–,Cc1cc(C(=O)COc2ccccc2C(=O)Nc2ccccc2)c(C)n1CC1CCCO1 (stereo not drawn),–

# — ChEMBL document CHEMBL5257143, “Discovery of First-in-Class Small Molecule Inhibitors of Lymphocyte Activation Gene 3 (LAG-3)” (ACS Med Chem Lett, 2023)
